Assay results published in patent publication EP0200024B1, “3-Cyano-pyridines, process for their preparation and their pharmaceutical use” (ARZNEIMITTELWERK DRESDEN GmbH, priority 1985, dated 1986).

Assays:
Langendorff-Herz = experiment: Langendorff heart in vitro (isolated perfused, freely beating heart; inotropy, chronotropy, coronary flow); set-up: species or system Meerschweinchen; details: for EC30: molarity of solution, 0,1 ml bolus into aortic stump, giving 30 % increase of inotropy, read-out: Erhöhung der Inotropie um 30 % bei Applikation von je 0,1 ml einer ... molaren Lösung; for EC100: molarity of solution, 0,1 ml bolus, giving 100 % increase of coronary flow, read-out: Erhöhung des Koronardurchflusses um 100 % bei Applikation von je 0,1 ml einer ... molaren Lösung; for positiv chronotrope Wirkung / positiv inotrope Wirkung: result in words
Method: Für die Versuche wurden männliche Meerschweinchen mit einer, Körpermasse von 300-350 g eingesetzt. An isolierten, mit carbogenbegaster Tyrodelösung von 37 °C durchströmten, frei schlagenden Herzen, wurden unter konstantem Druck die Kontraktionskraft (Inotropie), die Frequenz (Chronotropie) und der Koronardurchfluß unter dem Einfluß der 3-Cyan-2-(heteroalkyl-1-hetero)-5-(pyrid-4-yl)-pyridine der Formel I untersucht. Dazu wurden jeweils 0,1 ml der entsprechend molaren Substanzlösungen als Bolus direkt in den Aortenstumpf appliziert. Die 3-Cyan-2-(heteraalkyl-1-hetera)-5-(pyrid-4-yl)-pyridine zeigten eine teilweise starke und konzentrationsabhängige positiv inotrope und koronardilatatorische Wirkung. Die positiv chronotrope Wirkung war deutlich geringer, ausgeprägt. Beispielsweise zeigen die Verbindungen der Beispiele 1.2, 1.6, 1.7 und 1.8 eine Erhöhung der Inotropie um 30 % bei Applikation von je 0,1 ml einer 3,0 · 10⁻³, 2,2 · 10⁻², 2,0 · 10⁻⁴ bzw. 1,0 · 10⁻³ molaren Lösung und eine Erhöhung des Koronardurchflusses um 100 % bei Applikation von je 0,1 ml einer 6,0 · 10⁻³, 6,5 · 10⁻², 1,1 · 10⁻² bzw. 1,3 · 10⁻² molaren Lösung. Die Verbindungen der Beispiele 2.2, 2.3 und 2.4 weisen bei Applikation von je 0,1 ml einer 10⁻² molaren Stammlösung in die Aorta eine Erhöhung der Inotropie um 51 %, 38 % und 31 % sowie eine Erhöhung des Koronardurchflusses um 59 %, 99 % bzw. 88 % auf.

[1] = system: Isolierter, spontanaktiver Vorhof des Meerschweinchens; experiment: Isolated, spontaneously active atrium (inotropy and frequency); set-up: species or system Meerschweinchen; details: for EC30: Tyrode solution according to A.A. Alousi et al., 32 °C, read-out: 30%ige Steigerung der Inotropie bei Konzentrationen von; for chronotrope Wirkung / positiv inotrope Wirkung: result in words
Method: Für die Versuche wurden männliche Meerschweinchen mit einer Körpermasse von 400-500 g verwendet. Am isolierten, spontanaktiven Vorhof erfolgte nach einer 60 Min. währenden Adaptationszeit der Organpräparate in 32 °C temperierter carbogen-durchperlter Tyrodelösung die Untersuchung der Beeinflussung von Inotropie und Frequenz unter Einwirkung der 3-Cyan-2-(heteroalkyl-1-hetero)-pyridine der Formel I. Eine Reihe von Verbindungen zeigte eine starke und dosisabhängige positiv inotrope Wirkung. Bei Verwendung einer Tyrodelösung nach A.A. Alousi et al. [Circ. Res. 45, 666 (1979)] zeigen beispielsweise die Verbindungen von Beispiel 1.2, 1.7, 1.27, 3.3, 3.4, 3.5, 4.1 bzw. 4.3 eine 30%ige Steigerung der Inotropie bei Konzentrationen von 5,6 · 10⁻⁵, 5,4 · 10⁻⁶, 5,0 · 10⁻⁵, 5,8 · 10⁻⁵, 9,1 · 10⁻⁵, 1,6 · 10⁻⁴, 3,5 · 10⁻⁵ und 5,4 · 10⁻⁵ mol/l. Die Verbindung von Beispiel 1.27 zeigt bei einer Konzentration von 5 · 10⁻⁵ mol/l eine Abnahme der Frequenz um 15 %. Die Verbindung von Beispiel 1.8 zeigt bei Verwendung einer Tyrodelösung mit der Zusammensetzung (mmol/l): NaCl 136,9; KCl 2,7; CaCl₂ 1,8; MgCl₂ 1,0; NaHCO₃ 11,9; NaH₂PO₄ 0,4; Glucose 16,5 eine 30%ige Steigerung der Inotropie bei einer Konzentration von 1,2 · 10⁻⁴ mol/l.

[2] = system: Narkotisiertes Minischwein; experiment: Anaesthetised minipig i.v. (dp/dtmax, blood pressure); assay type: in vivo, Zwergschweinen (Mini-LEWE); details: result in words
Text: Die Untersuchungen wurden an 6 männlichen Zwergschweinen (Mini-LEWE) mit einem durchschnittlichen Gewicht von 50 kg durchgeführt. Die Tiere wurden unter N₂O-O₂-Beatmung (3:1) und Muskelrelaxation (d-Tubocurarin) thorakotomiert. Der Blutdruck wurde in der Aorta ascendens mittels Transducer und der Druck im linken Ventrikel (LVP) mit einem Tipmanometer gemessen. Aus dem LVP-Signal wurde über ein Differenzierglied dp/dtmax ermittelt. Aus dem EKG wurde mit einem Kardiotachometer die Herzfrequenz zusammen mit anderen Signalen registriert. Das Herz-Zeit-Volumen wurde mit einem elektromagnetischen Flowmeter gemessen und über einen Integrator das Herz-Schlag-Volumen ermittelt. Einige der 3-Cyan-2-(heteroalkyl-1-hetero)-pyridine der Formel I zeigen an diesem Modell eine starke und dosisabhängige Erhöhung der Kontraktilität des Herzens (dp/dtmax) sowie teilweise eine signifikante Senkung des totalen peripheren Gesamtwiderstandes. So wurden beispielsweise unter den Verbindungen von Beispiel 1.2 und 1.7 bei einer Dosis von 2,0 · 10⁻⁶ bzw. 5,5 · 10⁻⁷ eine 50%ige Steigerung des Kontraktilitätsparameters dp/dtmax sowie bei einer Dosis von 1,1 · 10⁻⁶ bzw. 1,7 · 10⁻⁶ eine 10%ige Senkung des diastolischen Blutdruckes, der neben der beobachteten Steigerung des Herzzeitvolumens eine wesentliche Größe zur Bestimmung des totalen peripheren Gefäßwiderstandes darstellt, gefunden.

[3] = system: Samenleiter von Meerschweinchen; experiment: Noradrenaline antagonism in vitro (noradrenaline contraction of isolated vas deferens); details: for IC50: Cavia porcellus, compound given 1 min before submaximal noradrenaline concentration, read-out: ED₅₀-Werte (Hemmung der Noradrenalinkontraktion); for Hemmung der Noradrenalinkontraktion: result in words
Method: Die in Warmblüterphosphattyrode präparierten Samenleiter von Meerschweinchen (ca. 400 g Körpermasse) wurden 60 Min. im Organbad adaptiert. Anschließend wurden die Kontraktionen unter Gabe von Noradrenalin isotonisch registriert. Die 3-Cyan-2-(heteroalkyl-1-hetero)-pyridine der Formel I wurden 1 Min vor den jeweils submaximal reagierenden Noradrenalinkonzentrationen in das Organbad appliziert. […] Für die Verbindungen von Beispiel 1.2, 1.6, 1.7 und 1.8 ergaben sich beispielsweise ED₅₀-Werte von 2,2 · 10⁻⁵, 1,6 · 10⁻⁴, 2,5 · 10⁻⁴ sowie 1,3 · 10⁻⁴ mol/l.

Meerschweinchen = experiment: Inhalative histamine bronchospasm, oral administration; assay type: in vivo; details: Cavia porcellus, 1 h, 60 min before inhaled 0,1 % histamine, 10 animals per dose, read-out: ED₅₀-Werte (Schutz vor Histamin-Bronchialkonstriktionen)
Method: Eine, in einem Ultraschallverdampfer vernebelte 0,1 %ige Histaminlösung induziert an männlichen Meerschweinchen (Körpermasse 200-300 g) innerhalb von 2 bis 3 Min. typische Bronchialkonstriktionen. Durch orale Verabreichung geeigneter Dosen der 3-Cyan-2-(heteroalkyl-1-hetero)-pyridine der Formel I 60 Min. vor der inhalativen Histamingabe wurden die Tiere innerhalb einer festgelegten Expositionszeit vor den durch Histamin verursachten Bronchialkonstriktionen geschützt. Für die Derivate von Beispiel 1.2, 1.6, 1.7 und 1.8 ergeben sich z.B. aus je 10 Tieren pro Dosis ED₅₀-Werte von 4,3 · 10⁻⁴, 6,0 · 10⁻⁴, 3,3 · 10⁻⁴ sowie 2,5 · 10⁻⁴ mol/kg, was auf deutliche bronchodilatatorische bzw. antiallergische Wirkungen hinweist.

IC50 [3] [µM] | SMILES | EC30 (Langendorff-Herz) [µM] | EC100 (Langendorff-Herz) [µM] | positiv chronotrope Wirkung (Langendorff-Herz) | positiv inotrope Wirkung (Langendorff-Herz) | EC30 [1] [µM] | chronotrope Wirkung [1] | positiv inotrope Wirkung [1] | Senkung des diastolischen Blutdruckes [2] | Steigerung des Kontraktilitätsparameters dp/dtmax [2] | Hemmung der Noradrenalinkontraktion [3] | ED50 (Meerschweinchen) [µmol/kg]
22 | N#Cc1cc(-c2ccncc2)cnc1NCCO [Beispiel 1.2, 3-Cyan-2-(2-hydroxy-ethylamino)-5-(pyrid-4-yl)-pyridin] | 3000 | 6000 | relative geringer positiv chronotroper Aktivität | ausgeprägte und dosisabhängige positiv inotrope Wirkung | 56 | relative geringer positiv chronotroper Aktivität | ausgeprägte und dosisabhängige positiv inotrope Wirkung | dosisabhängige signifikante Senkung | beträchtliche dosisabhängige Steigerung | konzentrationsabhängige Hemmung | 430
250 | N#Cc1cc(-c2ccncc2)cnc1N1CCOCC1 [Beispiel 1.7, 3-Cyan-2-morpholino-5-(pyrid-4-yl)-pyridin] | 200 | 11000 | relative geringer positiv chronotroper Aktivität | ausgeprägte und dosisabhängige positiv inotrope Wirkung | 5.4 | relative geringer positiv chronotroper Aktivität | ausgeprägte und dosisabhängige positiv inotrope Wirkung | dosisabhängige signifikante Senkung | beträchtliche dosisabhängige Steigerung | konzentrationsabhängige Hemmung | 330
